The numbers were not newly measured in US20220047626A1, “COMPOSITION OF A SPRAY FORMULA TO CONTROL MASTITIS IN BOVINES” (priority 2018, published 2022), which cites them from elsewhere.

One may read the viscosity as the internal friction of a fluid under shear.

The conditions of the series: stated in the description, no method given.

For the molecule `OCC(O)CO` [glycerin], the viscosity is given as 950 cP. As for `CC(O)CO` (stereo not drawn) [propylene glycol], the viscosity is reported as 52 cP. With `OC[C@@H](O)[C@@H](O)[C@H](O)[C@@H](O)CO` [sorbitol], the viscosity is given as 200 cP.
